13 molecules from US20160075695A1, “BENZIMIDAZOLE DERIVATIVES AS BROMODOMAIN INHIBITORS” (Gilead Sciences, Inc., priority 2013, published 2016) can be followed below.

Assay [1] has as its target T1, BRD4-1 (Homo sapiens, UniProt O60885).
T1 construct: made in house; host or cells: Escherichia coli
Nature of the assay: BRD4-1 Ligand KI assay (TR-FRET, Cy5 labeled probe displacement). The assay is classed as binding. The protocol: (§1) Binding of the two tandem bromodomains, BRD4-I and BRD4-2, to a Cy5 labeled probe/ligand (Compound 1020-501) were measured using a homogeneous time resolved fluorescence resonance energy transfer (TR-FRET) assay.
(§2) The labeled ligand specifically binds BRD4-1 and BRD4-2 and can be displaced by a small molecule inhibitor that shares a similar or overlapping binding site. BRD4-I and BRD4-2 were expressed and purified from Escherichia coli as N-terminal His6-tagged proteins. A Eu-cryptate labeled anti-His antibody (Perkin Elmer) was used to specifically bind BRD4. […] Assays were performed in 50 mM Hepes (pH 7.5), 150 mM NaCl, 0.1 mg/ml BSA, 0.01% (v/v) Brij, 0.5% (v/v) DMSO and 1.0 nM labeled ligand at the following concentrations for each BRD4 isoform: 2 nM BRD4-1 and 0.5 nM BRD4-2. After an assay reaction time of 60 minutes at 25° C., binding was measured with 2 nM Eu-cryptate labeled anti-His antibody. TR-FRET signal was detected on an Envision plate reader (Ex: 320 nm; Em: 615/665 nm; 100 μs delay and 200 μs read window). […] All IC50 values represent geometric mean values of a minimum of four determinations. The IC50 values were converted to Ki values (dissociation constant for BRD4-inhibitor complex) using the Cheng and Prusoff equation for a competitive inhibitor mode of action. These assays generally produced results within 3-fold of the reported mean.
A general note: In TR-FRET formats the signal depends on donor and acceptor labels being close together.

In assay [2] the target is T2, BRD4-2 (Homo sapiens, UniProt O60885).
T2 construct: made in house; host or cells: Escherichia coli
Nature of the assay: BRD4-2 Ligand KI assay (TR-FRET, Cy5 labeled probe displacement). Type of assay: binding. On the procedure: as §1, §2

The target in assay [3] is T1, BRD4-1. Nature of the assay: HTRF (TR-FRET) assay, BRD4-1 binding to acetylated histone H4 peptide. Conditions: 60 nM BRD4-1, 200 nM H4 peptide, 60 minutes at 25° C.; geometric mean of a minimum of four determinations; read-out: HTRF BRD4-1 (IC50). On the procedure: (§3) Binding of the two tandem bromodomains, BRD4-1 and BRD4-2, to an acetylated histone H4 peptide was measured using a homogeneous time resolved fluorescence resonance energy transfer (TR-FRET) assay. […] BRD4-1 and BRD4-2 were expressed and purified from Escherichia coli as N-terminal His6-tagged proteins. An XL665 labeled anti-His antibody (Cisbio) was used to specifically bind BRD4 and a cryptate labeled streptavidin protein was used because it specifically recognized the biotinylated H4 peptide. […] After an assay reaction time of 60 minutes at 25° C., binding was measured with 2 nM crytptate labeled streptavidin and 10 nM anti-His-XL665 antibody. TR-FRET signal was detected on an Envision plate reader (Ex: 320 nm; Em: 615/665 nm; 100 us delay and 200 μs read window). […] All IC50 values represent geometric mean values of a minimum of four determinations.

For assay [4], the target named is T2, BRD4-2. Nature of the assay: HTRF (TR-FRET) assay, BRD4-2 binding to acetylated histone H4 peptide. To be noted: 120 nM BRD4-2, 200 nM H4 peptide, 60 minutes at 25° C.; geometric mean of a minimum of four determinations; read-out: HTRF BRD4-2 (IC50). On the procedure: as §3
The target of assay [5] is T1, BRD4-1. Kind of assay: Alpha assay, BRD4-1 binding to acetylated histone H4 peptide. Conditions: 15 nM BRD4-1, 200 nM H4 peptide, 60 minutes at 25° C.; geometric mean of a minimum of four determinations; read-out: Alpha Assay (IC50). On the procedure:
Binding of the bromodomain BRD4-I to an acetylated histone H4 peptide was measured using a bead-based Amplified Luminescent Proximity Homogeneous Assay (ALPHA). […] BRD4-I was expressed and purified from Escherichia coli as an N-terminal His6-tagged protein. Nickel-Chelate ALPHA acceptor beads (Perkin Elmer) were used to specifically bind BRD4-1 and ALPHA streptavidin donor beads (Perkin Elmer) were used because they specifically recognized the biotinylated H4 peptide. […] Assays were performed in 50 mM Hepes (pH 7.5), 150 mM NaCl, 0.1 mg/ml BSA, 0.01% (v/v) Brij, 0.5% (v/v) DMSO, 200 nM H4 peptide and 15 nM of BRD4-1 protein. After an assay reaction time of 60 minutes at 25° C., binding was measured with 20 μg/ml streptavidin donor beads and 20 μg/ml nickle-chelate acceptor beads. ALPHA signal was detected on an Envision plate reader (Ex: 320 nm; Em: 570 nm; Ex time: 180 ms). […] All IC50 values represent geometric mean values of a minimum of four determinations.

Where [6] appears, read: 2 nM BRD4-1, 1.0 nM labeled ligand, 60 minutes at 25° C., read-out: BRD4-1 Ligand KI (IC50).
Where [7] appears, read: 0.5 nM BRD4-2, 1.0 nM labeled ligand, 60 minutes at 25° C., read-out: BRD4-2 Ligand KI (IC50).

Broadly, the IC50 is the concentration that inhibits the measured activity by half. Regarding `Cc1noc(C)c1-c1cc(C(O)(c2ccccn2)c2ccccn2)c2nc(C3CC3)[nH]c2c1F` [Compound 1020-224, (2-cyclopropyl-6-(3,5-dimethylisoxazol-4-yl)-7-fluoro-1H-benzo[d]imidazol-4-yl)di(pyridin-2-yl)methanol], the values for the 50% inhibitory concentration (IC50) at BRD4-1 [1] and at BRD4-2 [2] were 10.8 nM and 20.2 nM, respectively.
Consider `Cc1noc(C)c1-c1cc(C(O)(c2ccccc2)c2cccnc2)c2nc(C3CC3)[nH]c2c1` (centres unmarked) [Compound 1020-112, (2-cyclopropyl-6-(3,5-dimethylisoxazol-4-yl)-1H-benzo[d]imidazol-4-yl)(phenyl)(pyridin-3-yl)methanol], for which the 50% inhibitory concentration (IC50) on BRD4-1 [1] (setting [6]) was 10.4 nM; on BRD4-2 [2] (setting [7]), 13.5 nM.
For `Cc1noc(C)c1-c1cc(C(O)(c2ccccn2)c2ccccn2)c2nc(C3CC3)[nH]c2c1` [Compound 1020-104, (2-cyclopropyl-6-(3,5-dimethylisoxazol-4-yl)-1H-benzo[d]imidazol-4-yl)di(pyridin-2-yl)methanol], the half-maximal inhibitory concentration (IC50) came to 7.2 nM at BRD4-1 [1] (setting [6]) and 11.7 nM at BRD4-2 [2] (setting [7]).
Turning to `Cc1ccc2ncccc2c1-c1cc(-c2c(C)noc2C)cc2nc(C3CC3)n(C)c12` [Compound 1020-74, 4-(2-Cyclopropyl-1-methyl-7-(6-methylquinolin-5-yl)-1H-benzo[d]imidazol-5-yl)-3,5-dimethylisoxazole], the figures for the 50% inhibitory concentration (IC50) on BRD4-1 [3], at BRD4-2 [4] and on BRD4-1 [5] were 97.1 nM, 112 nM and 18.9 nM, respectively.
The matching figures for `Cc1noc(C)c1-c1cc(C(C)c2ccc(F)cc2)c2[nH]c(C3CC3)nc2c1` (centres unmarked) [Compound 1020-44, 4-(2-Cyclopropyl-4-(1-(4-fluorophenyl)ethyl)-1H-benzo[d]imidazol-6-yl)-3,5-dimethylisoxazole]: 139 nM, 111 nM and 22 nM.
With `Cc1n[nH]c(C)c1-c1cc(-c2c(C)noc2C)cc2nc(C3CC3(F)F)[nH]c12` (centres unmarked) [Compound 1020-78, 4-(2-(2,2-Difluorocyclopropyl)-7-(3,5-dimethyl-1H-pyrazol-4-yl)-1H-benzo[d]imidazol-5-yl)-3,5-dimethylisoxazole], the half-inhibitory concentration (IC50) at BRD4-1 [3] was 161 nM; on BRD4-2 [4] it was 94.1 nM; on BRD4-1 [5] it was 25.1 nM.
As to `Cc1noc(C)c1-c1cc(C(O)(c2nccs2)c2nccs2)c2nc(C3CC3)[nH]c2c1` [Compound 1020-103, (2-cyclopropyl-6-(3,5-dimethylisoxazol-4-yl)-1H-benzo[d]imidazol-4-yl)di(thiazol-2-yl)methanol], the IC50 on BRD4-1 [1] (setting [6]) came to 4 nM; at BRD4-2 [2] (setting [7]), 12.4 nM.
Take `Cc1n[nH]c(C)c1-c1cc(-c2c(C)noc2C)cc2[nH]c(NCC3CC3)nc12` [Compound 1020-79, N-(Cyclopropylmethyl)-4-(3,5-dimethyl-1H-pyrazol-4-yl)-6-(3,5-dimethylisoxazol-4-yl)-1H-benzo[d]imidazol-2-amine]: the IC50 on BRD4-1 [3] was found to be 161 nM; on BRD4-2 [4], 87.2 nM; on BRD4-1 [5], 33.6 nM.
Take `Cc1noc(C)c1-c1cc(C(O)(c2ccccc2)c2ccccn2)c2nc(C3CC3)[nH]c2c1` (centres unmarked) [Compound 1020-113, (2-cyclopropyl-6-(3,5-dimethylisoxazol-4-yl)-1H-benzo[d]imidazol-4-yl)(phenyl)(pyridin-2-yl)methanol]: the values for the 50% inhibitory concentration (IC50) on BRD4-1 [1] (setting [6]) and at BRD4-2 [2] (setting [7]) were 10.7 nM and 12.8 nM, respectively.
`Cc1n[nH]c(C)c1-c1cc(-c2c(C)noc2C)cc2nc(C3CC3)n(C)c12` [Compound 1020-72, 4-(2-cyclopropyl-7-(3,5-dimethyl-1H-pyrazol-4-yl)-1-methyl-1H-benzo[d]imidazol-5-yl)-3,5-dimethylisoxazole]: the concentration for half-maximal inhibition (IC50) on BRD4-1 [3] came to 101 nM; on BRD4-2 [4], 69.1 nM; on BRD4-1 [5], 12.3 nM.
As for `Cc1cccc(C(O)(c2cc(-c3c(C)noc3C)cc3[nH]c(C4CC4)nc23)C2CCCO2)n1` (racemic) [Compound 1020-114, (2-cyclopropyl-6-(3,5-dimethylisoxazol-4-yl)-1H-benzo[d]imidazol-4-yl)(6-methylpyridin-2-yl)(tetrahydrofuran-2-yl)methanol], the IC50 turned out to be 3.8 nM at BRD4-1 [1] (setting [6]) and 2.7 nM at BRD4-2 [2] (setting [7]).
Regarding `Cc1noc(C)c1-c1cc(C(O)(c2ncccn2)c2ccc(F)cc2F)c2nc(C3CC3)[nH]c2c1` (centres unmarked) [Compound 1020-257, (2-Cyclopropyl-6-(3,5-dimethylisoxazol-4-yl)-1H-benzo[d]imidazol-4-yl)(2,4-difluorophenyl)(pyrimidin-2-yl)methanol], the concentration for half-maximal inhibition (IC50) at BRD4-1 [1] (setting [6]) amounted to 4.7 nM; at BRD4-2 [2] (setting [7]), 5.6 nM.
On to `Cc1n[nH]c(C)c1-c1cc(-c2c(C)noc2C)cc2nc(N)[nH]c12` [Compound 1020-96, 4-(3,5-Dimethyl-1H-pyrazol-4-yl)-6-(3,5-dimethylisoxazol-4-yl)-1H-benzo[d]imidazol-2-amine], for which the figures for the half-inhibitory concentration (IC50) at BRD4-1 [3], on BRD4-2 [4] and at BRD4-1 [5] were 276 nM, 96.9 nM and 53.7 nM, respectively.
